Results as given in patent publication US7989451B2, “Tricyclic 1,2,4-triazine oxides and compositions for therapeutic use in cancer treatments” (Auckland Uniservices Limited, priority 2005, dated 2011).
Where two headings read alike, the source gives them in different places.

Legend:
[1] = test system: human colon carcinoma HT29; assay: Proliferation assay (IC50) under aerobic and hypoxic conditions, HT29; format: cell-based; conditions: for IC50: Homo sapiens, 4 h drug exposure, sulforhodamine B; for HCR: hypoxic cytotoxicity ratio = IC50 aerobic/IC50 hypoxic
In short: (§1)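 HT29 (1100) and SiHa (1500) cells in αMEM with 17 mM glucose and 100 μM 2′-dCyd, exposed 4 h at 37 °C to 3-fold dilutions under 20% O2 or anoxia (<0.001% O2). Regrowth 5 (oxic) or 6 (anoxic) days; IC50 by sulforhodamine B. HCR = IC50 aerobic/IC50 hypoxic.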

[2] = test system: HT29, human colon carcinoma; assay: Fractionated tumour excision assay, HT29 xenograft; format: in vivo, CD-1 nude mice; conditions: for log cell kill compared to radiation alone: i.p. at 100% of MTD twice daily for 4 days, 30 min before each of 8×2.5 Gy, excised 18 hr after treatment
Description: (§2) FIG. 3 illustrates by way of a plot the activity of fractionated dose TPZ and compound 77 against hypoxic cells in three human tumour xenograft models: H460, non-small cell lung carcinoma; HT29, human colon carcinoma; SiHa, human cervical carcinoma. Drugs (1.0× fractionated MTD) were administered 30 min before each of 8×2.5 Gy doses of radiation.
(§3) The activity of multiple doses of compound 77 and TPZ against hypoxic cells in three human tumour xenografts is illustrated in FIG. 3. Subcutaneous tumours (average of two largest diameters 8-10 mm) were grown by inoculating 10^7 cells into the midline of the back in CD-1 nude mice. Drugs were administered by i.p. injection at 100% of the MTD for twice daily (9 am, 3 pm) administration for 4 days, either alone or 30 min before each of 8×2.5 Gy local irradiation of the tumour. Tumours were excised 18 hr after treatment and plated to determine the number of clonogens/g tumour tissue. Antitumour activity is measured as logs of cell kill in addition to the cell kill observed for radiation alone.

[3] = test system: SiHa, human cervical carcinoma; assay: Fractionated tumour excision assay, SiHa xenograft; format: in vivo, CD-1 nude mice; conditions: for log cell kill compared to radiation alone: i.p. at 100% of MTD twice daily for 4 days, 30 min before each of 8×2.5 Gy, excised 18 hr after treatment
Description: as §2, §3

[4] = test system: H460, non-small cell lung carcinoma; assay: Fractionated tumour excision assay, H460 xenograft; format: in vivo, CD-1 nude mice; conditions: for log cell kill compared to radiation alone: i.p. at 100% of MTD twice daily for 4 days, 30 min before each of 8×2.5 Gy, excised 18 hr after treatment
Description: as §2, §3

[5] = test system: hypoxic cells in HT29 tumours; assay: HT29 excision assay, single dose in combination with radiation; format: in vivo, CD-1 nude mice
Description: HT29 Excision assay. In vivo activity of single dose of compound 77 in combination with radiation. The activity of compound 77 against hypoxic cells in HT29 tumours is illustrated in FIG. 1. Subcutaneous HT29 tumours (average of two largest diameters 8-10 mm) were grown by inoculating 10^7 cells (obtained by enzymatic dissociation of multicellular spheroids) into CD-1 nude mice. Cmpd 77 was administered as a single i.p. dose (560 μmol/kg, which is 75% of the maximum tolerated dose) alone or 5 min after radiation (20 Gy). Tumours were excised 18 h after treatment and plated to determine the number of clonogens/g tumour tissue.

[6] = test system: human cervical carcinoma SiHa; assay: Proliferation assay (IC50) under aerobic and hypoxic conditions, SiHa; format: cell-based; conditions: for IC50: Homo sapiens, 4 h drug exposure, sulforhodamine B; for HCR: hypoxic cytotoxicity ratio = IC50 aerobic/IC50 hypoxic
In short: as §1

[7] = HT-29, hypoxic (anaerobic chamber, <0.001% O2), then 6 days growth, read-out: IC50 (μM) hypoxic
[8] = HT-29, oxic (20% O2), then 5 days growth, read-out: IC50 (μM) oxic
[9] = fractionated drug plus 8×2.5 Gy radiation
[10] = hypoxic (anaerobic chamber, <0.001% O2), then 6 days growth, read-out: IC50 (μM) hypoxic
[11] = oxic (20% O2), then 5 days growth, read-out: IC50 (μM) oxic

| SMILES | IC50 [1, 7] | IC50 [1, 8] | IC50 [6, 10] | IC50 [6, 11] | melting point | HCR [1] | killing relative to TPZ [2, 9] | log cell kill compared to radiation alone [2] | log cell kill in addition to radiation alone, 77 plus radiation relative to TPZ plus radiation ([3]; SiHa tumours, p<0.05, Student's t-test) | killing relative to TPZ ([3]; SiHa, fractionated drug plus 8×2.5 Gy radiation) | log cell kill compared to radiation alone ([3]; SiHa) | killing relative to TPZ [4, 9] | log cell kill compared to radiation alone [4] | Hypoxic cytotoxicity: difference in clonogens/g tumour tissue between radiation-only and radiation+drug groups ([5]; single i.p. dose 560 μmol/kg (75% of MTD) 5 min after radiation (20 Gy), tumours excised 18 h after treatment, ANOVA and Dunnett's test) | Selectivity for hypoxic cells: activity with radiation versus as a single agent ([5]; single i.p. dose 560 μmol/kg alone or 5 min after radiation (20 Gy)) | HCR [6] |
| --- | --- | --- | --- | --- | --- | --- | --- | --- | --- | --- | --- | --- | --- | --- | --- | --- |
| [O-][n+]1nc(CCCN2CCOCC2)[n+]([O-])c2cc3c(cc21)CCC3 [Compound 77, 3-[3-(4-Morpholinyl)propyl]-7,8-dihydro-6H-indeno[5,6-e][1,2,4]triazine 1,4-Dioxide] | 2.8 ± 0.6 µM | 349 ± 62 µM | 1.4 ± 0.3 µM | 302 ± 48 µM | – | 127 ± 12 | greater killing than TPZ | significantly (P<0.05) greater log cell kill | significantly greater | greater killing than TPZ | significantly (P<0.05) greater log cell kill | greater killing than TPZ | significantly (P<0.05) greater log cell kill | statistically significant (p<0.05) | greater activity of 77 with radiation than as a single agent | 223 ± 14 |
| Nc1n[n+]([O-])c2ccccc2[n+]1[O-] [TPZ, tirapazamine, reference compound] | – | – | – | – | – | – | – | significantly (P<0.05) greater log cell kill | – | – | significantly (P<0.05) greater log cell kill | – | significantly (P<0.05) greater log cell kill | – | – | – |
| CCN(CC)CCNc1n[n+]([O-])c2c3c(ccc2[n+]1[O-])CCC3 [Compound 9, N^1,N^1-Diethyl-N^2-(1,4-dioxido-8,9-dihydro-7H-indeno[5,4-e][1,2,4]triazin-3-yl)-1,2-ethanediamine] | 4.2 ± 1.5 µM | 72 ± 22 µM | 0.9 ± 0.2 µM | 59 ± 4 µM | 138 to 141 °C | 17 ± 5 | – | – | – | – | – | – | – | – | – | 64 ± 4 |
| [O-][n+]1nc(CCCN2CCOCC2)[n+]([O-])c2cc3c(cc21)CCO3 [Compound 216, 3-[3-(4-Morpholinyl)propyl]-7,8-dihydrofuro[2,3-g][1,2,4]benzotriazine 1,4-Dioxide] | 8.9 ± 0.4 µM | 218 ± 54 µM | 5.05 ± 0.01 µM | 216 µM | 150 to 154 °C | 25 ± 6 | – | – | – | – | – | – | – | – | – | 43 |
| CN(C)CCNc1n[n+]([O-])c2cc3c(cc2[n+]1[O-])CCC3 [Compound 23, N^1-(1,4-Dioxido-7,8-dihydro-6H-indeno[5,6-e][1,2,4]triazin-3-yl)-N^2,N^2-dimethyl-1,2-ethanediamine] | 2.3 ± 0.6 µM | 318 ± 14 µM | 0.7 ± 0.3 µM | 105 ± 21 µM | 150 to 153 °C | 152 ± 35 | – | – | – | – | – | – | – | – | – | 111 ± 5 |
| CN(C)CCNc1n[n+]([O-])c2c3c(ccc2[n+]1[O-])CCC3 [Compound 7, N^1,N^1-Dimethyl-N^2-(1,4-dioxido-8,9-dihydro-7H-indeno[5,4-e][1,2,4]triazin-3-yl)-1,2-ethanediamine] | 3 µM | 255 ± 53 µM | 1.6 µM | 226 ± 46 µM | 153 to 156 °C | 67 | – | – | – | – | – | – | – | – | – | 99 |

The next lines start with results.

| IC50 [1, 7] | IC50 [1, 8] | IC50 [6, 10] | IC50 [6, 11] | melting point | SMILES | HCR [1] | killing relative to TPZ [2, 9] | log cell kill compared to radiation alone [2] | log cell kill in addition to radiation alone, 77 plus radiation relative to TPZ plus radiation ([3]; SiHa tumours, p<0.05, Student's t-test) | killing relative to TPZ ([3]; SiHa, fractionated drug plus 8×2.5 Gy radiation) | log cell kill compared to radiation alone ([3]; SiHa) | killing relative to TPZ [4, 9] | log cell kill compared to radiation alone [4] | Hypoxic cytotoxicity: difference in clonogens/g tumour tissue between radiation-only and radiation+drug groups ([5]; single i.p. dose 560 μmol/kg (75% of MTD) 5 min after radiation (20 Gy), tumours excised 18 h after treatment, ANOVA and Dunnett's test) | Selectivity for hypoxic cells: activity with radiation versus as a single agent ([5]; single i.p. dose 560 μmol/kg alone or 5 min after radiation (20 Gy)) | HCR [6] |
| --- | --- | --- | --- | --- | --- | --- | --- | --- | --- | --- | --- | --- | --- | --- | --- | --- |
| 5.2 ± 0.3 µM | 258 ± 207 µM | 1.9 ± 0.2 µM | 176 ± 70 µM | 186 to 189 °C | CN(C)CCNc1n[n+]([O-])c2cc3c(cc2[n+]1[O-])OCC3 [Compound 208, N^1-(1,4-Dioxido-7,8-dihydrofuro[2,3-g][1,2,4]benzotriazin-3-yl)-N^2,N^2-dimethyl-1,2-ethanediamine] | 46 ± 36 | – | – | – | – | – | – | – | – | – | 128 ± 3 |
| 5.4 ± 2.8 µM | 261 ± 90 µM | 2.6 ± 0.4 µM | 142 ± 6 µM | 77 to 79 °C | COCCN(C)CCCNc1n[n+]([O-])c2cc3c(cc2[n+]1[O-])CCC3 [Compound 53, N^1-(1,4-Dioxido-7,8-dihydro-6H-indeno[5,6-e][1,2,4]triazin-3-yl)-N^3-(2-methoxyethyl)-N^3-methyl-1,3-propanediamine] | 81 ± 60 | – | – | – | – | – | – | – | – | – | 55 ± 6 |
| 1.4 ± 0.1 µM | 72 ± 2 µM | 0.71 ± 0.01 µM | 67 ± 5 µM | 181 to 184 °C | [O-][n+]1nc(NCCN2CCCCCC2)[n+]([O-])c2cc3c(cc21)CCC3 [Compound 47, N-[2-(1-Azepanyl)ethyl]-7,8-dihydro-6H-indeno[5,6-e][1,2,4]triazin-3-amine 1,4-Dioxide] | 52 ± 1 | – | – | – | – | – | – | – | – | – | 95 ± 6 |
